Measured values from PubChem BioAssay AID330 (DTP/NCI, 2004).
Several values for one entry are separate records, joined by “and”; a condition that tells them apart may be missing. Equal entries are not always repeated. Inconclusive results and toxic doses are left out. The calls were made as follows: active = survival T/C of 150% or more; inactive = T/C below 125% in these data.

Tested on: P388 leukemia ip, CD2F1 mice, survival T/C
Experiment: NCI In Vivo Anticancer Drug Screen. Data for tumor model P388 Leukemia (intraperitoneal) in CD2F1 (CDF1) mice
Conditions: endpoint: median survival time, higher = longer survival
Method in brief: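 Mice carrying the transplanted tumor received test compound or vehicle. Survival was recorded in each group, and the value is the treated-group measurement divided by that of the vehicle-treated control group.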

[1] = dose: 50.0 mg/kg/injection, schedule: Q01DX005 (ip), vehicle: Klucel (hydroxypropylcellulose) (HPC)
[2] = dose: 100.0 mg/kg/injection, schedule: Q01DX005 (ip), vehicle: Klucel (hydroxypropylcellulose) (HPC)
[3] = dose: 200.0 mg/kg/injection, schedule: Q01DX005 (ip), vehicle: Klucel (hydroxypropylcellulose) (HPC)
[4] = dose: 6.25 mg/kg/injection, schedule: Q01DX005 (ip), vehicle: Klucel (hydroxypropylcellulose) (HPC)
[5] = dose: 12.5 mg/kg/injection, schedule: Q01DX005 (ip), vehicle: Klucel (hydroxypropylcellulose) (HPC)
[6] = dose: 50.0 mg/kg/injection, schedule: Q01DX009 (ip), vehicle: Klucel (hydroxypropylcellulose) (HPC)
[7] = dose: 100.0 mg/kg/injection, schedule: Q01DX009 (ip), vehicle: Klucel (hydroxypropylcellulose) (HPC)
[8] = dose: 200.0 mg/kg/injection, schedule: Q01DX009 (ip), vehicle: Klucel (hydroxypropylcellulose) (HPC)
[9] = dose: 25.0 mg/kg/injection, schedule: Q01DX001 (ip), vehicle: saline with Tween-80
[10] = dose: 50.0 mg/kg/injection, schedule: Q01DX001 (ip), vehicle: saline with Tween-80
[11] = dose: 50.0 mg/kg/injection, schedule: Q01DX005 (ip), vehicle: saline with Tween-80
[12] = dose: 100.0 mg/kg/injection, schedule: Q01DX005 (ip), vehicle: saline with Tween-80
[13] = dose: 200.0 mg/kg/injection, schedule: Q01DX005 (ip), vehicle: saline with Tween-80
[14] = dose: 50.0 mg/kg/injection, schedule: Q01DX009 (ip), vehicle: saline with Tween-80
[15] = dose: 100.0 mg/kg/injection, schedule: Q01DX009 (ip), vehicle: saline with Tween-80
[16] = dose: 200.0 mg/kg/injection, schedule: Q01DX009 (ip), vehicle: saline with Tween-80

Measured: T/C

CC1CCC(NC(=O)N(CCCl)N=O)CC1 (centres undefined)
inactive: dose: 1.0 mg/kg/injection, schedule: Q01DX009 (ip), vehicle: saline sonified 112 % of control | dose: 2.0 mg/kg/injection, schedule: Q01DX009 (ip), vehicle: saline with Tween-80 122 % of control | dose: 8.0 mg/kg/injection, schedule: Q01DX009 (ip), vehicle: saline sonified 100 % of control | dose: 10.0 mg/kg/injection, schedule: Q04DX003 (ip), vehicle: saline with Tween-80 108 % of control and 120 % of control | dose: 16.0 mg/kg/injection, schedule: Q01DX009 (ip), vehicle: saline with Tween-80 109 % of control | dose: 24.0 mg/kg/injection, schedule: Q04DX003 (ip), vehicle: other 110 % of control
active: dose: 3.0 mg/kg/injection, schedule: Q04DX003 (ip), vehicle: other 163 % of control | dose: 3.75 mg/kg/injection, schedule: Q04DX003 (ip), vehicle: other 163 % of control | dose: 4.0 mg/kg/injection, schedule: Q01DX009 (ip), vehicle: saline sonified 166 % of control | dose: 4.0 mg/kg/injection, schedule: Q01DX009 (ip), vehicle: saline with Tween-80 154 % of control | dose: 5.0 mg/kg/injection, schedule: Q04DX003 (ip), vehicle: other 238 % of control | dose: 6.0 mg/kg/injection, schedule: Q04DX003 (ip), vehicle: other 247 % of control | dose: 7.5 mg/kg/injection, schedule: Q04DX003 (ip), vehicle: other 225 % of control | dose: 8.0 mg/kg/injection, schedule: Q01DX009 (ip), vehicle: saline with Tween-80 190 % of control | dose: 10.0 mg/kg/injection, schedule: Q04DX003 (ip), vehicle: other 160 % of control | dose: 12.0 mg/kg/injection, schedule: Q04DX003 (ip), vehicle: other 238 % of control | dose: 15.0 mg/kg/injection, schedule: Q04DX003 (ip), vehicle: other 441 % of control | dose: 15.0 mg/kg/injection, schedule: Q04DX003 (ip), vehicle: saline with Tween-80 218 % of control | dose: 20.0 mg/kg/injection, schedule: Q04DX003 (ip), vehicle: other 231 % of control | dose: 20.0 mg/kg/injection, schedule: Q04DX003 (ip), vehicle: saline with Tween-80 227 % of control and 250 % of control | dose: 30.0 mg/kg/injection, schedule: Q04DX003 (ip), vehicle: other 156 % of control

Cc1cc(=O)oc2ccc(C(=O)/C=C/N(C)C)c(O)c12
inactive: dose: 60.0 mg/kg/injection, schedule: Q01DX005 (ip), vehicle: saline with Tween-80 96 % of control | dose: 120.0 mg/kg/injection, schedule: Q01DX005 (ip), vehicle: saline with Tween-80 92 % of control | dose: 240.0 mg/kg/injection, schedule: Q01DX005 (ip), vehicle: saline with Tween-80 89 % of control

CCOc1c(N=Nc2ccccc2)c(C)nn1C(=S)S
inactive: dose: 60.0 mg/kg/injection, schedule: Q01DX005 (ip), vehicle: Klucel + Tween-80 101 % of control | dose: 120.0 mg/kg/injection, schedule: Q01DX005 (ip), vehicle: Klucel + Tween-80 101 % of control | dose: 240.0 mg/kg/injection, schedule: Q01DX005 (ip), vehicle: Klucel + Tween-80 100 % of control

CC1(C)COC2(C)N(c3ccccc3)C(=O)ON12 (centres undefined)
inactive: [1] 100 % of control | [2] 100 % of control | [3] 97 % of control

CN=C(NC)c1ccc(NC(=O)c2cc(C(=O)Nc3ccc(C(=NC)NC)cc3)cc([N+](=O)[O-])c2)cc1
inactive: [4] 107 % of control | [5] 119 % of control

O=S(=O)(CC(O)C(Cl)(Cl)Cl)N1CCCCC1 (centres undefined)
inactive: [6] 101 % of control | [7] 95 % of control | [8] 100 % of control

COC(=O)c1ccc(SCCC(=O)CN2C(=O)c3ccccc3C2=O)cc1
inactive: [6] 94 % of control | [7] 93 % of control | [8] 86 % of control

Nc1nc(N)c(Nc2ccc(Cl)cc2)c(Cl)n1
inactive: [9] 102 % of control | [10] 101 % of control | dose: 100.0 mg/kg/injection, schedule: Q01DX001 (ip), vehicle: saline with Tween-80 95 % of control

COc1ccc(C(C)c2cc3c(cc2OCC(=O)O)OCO3)cc1 (centres undefined)
inactive: [11] 105 % of control | [12] 88 % of control | [13] 90 % of control

Cc1ccc(NC(=O)Oc2cc(C)c(Cl)cc2C)c([N+](=O)[O-])c1
inactive: [14] 95 % of control | [15] 87 % of control | [16] 91 % of control

COc1cc2c(cc1NC(=O)N(CCCl)N=O)-c1ccccc1C2
active: dose: 350.0 mg/kg/injection, schedule: Q04DX003 (ip), vehicle: Klucel (hydroxypropylcellulose) (HPC) 163 % of control

CCCCCCCCCCCC1NC(=S)NC(=O)C1C#N (centres undefined)
inactive: [6] 95 % of control | [7] 93 % of control | [8] 92 % of control

CCC(/C=C/c1ccccc1)=N\Nc1ccc(Cl)c(Cl)c1
inactive: [11] 104 % of control | [12] 96 % of control | [13] 91 % of control

NC(Cc1ccccc1)C(=O)OCN1C(=O)C2C3C=CC(C2C1=O)C1C(=O)N(COC(=O)C(N)Cc2ccccc2)C(=O)C31 (centres undefined)
inactive: dose: 25.0 mg/kg/injection, schedule: Q01DX009 (ip), vehicle: water 100 % of control | dose: 50.0 mg/kg/injection, schedule: Q01DX009 (ip), vehicle: water 104 % of control | dose: 100.0 mg/kg/injection, schedule: Q01DX009 (ip), vehicle: water 114 % of control | dose: 200.0 mg/kg/injection, schedule: Q01DX009 (ip), vehicle: water 124 % of control

CC1(CN2CCCC2)CCC(NC(=O)C(c2ccccc2)c2ccccc2)C(C)(C)O1 (centres undefined)
inactive: [9] 107 % of control | [10] 104 % of control

CN(C)[C@@H]1C(=O)C(C(=O)NCNc2nc3n[nH]nc3c(=O)[nH]2)=C(O)[C@@]2(O)C(=O)C3=C(O)c4c(O)cccc4[C@@](C)(O)[C@H]3C[C@@H]12
inactive: dose: 50.0 mg/kg/injection, schedule: Q04DX003 (ip), vehicle: saline 102 % of control | dose: 100.0 mg/kg/injection, schedule: Q04DX003 (ip), vehicle: saline 100 % of control | dose: 200.0 mg/kg/injection, schedule: Q04DX003 (ip), vehicle: saline 107 % of control | dose: 400.0 mg/kg/injection, schedule: Q04DX003 (ip), vehicle: saline 111 % of control

CN(C)C1=c2c(=O)n(C)c(=O)n(C)c2=NC2C=CC=CN12 (centres undefined)
inactive: [1] 100 % of control | [2] 96 % of control | [3] 86 % of control

O=S1(=O)C(c2cccc(F)c2)=C(O)c2cc3ccccc3nc21
inactive: [14] 104 % of control | [15] 97 % of control | [16] 104 % of control

CN(Cc1cnc2nc(N)nc(N)c2n1)c1ccc(C(=O)NC(CCC(=O)OC(C)(C)C)C(=O)O)cc1 (centres undefined)
inactive: dose: 20.0 mg/kg/injection, schedule: Q04DX003 (ip), vehicle: sodium bicarbonate 122 % of control
active: dose: 5.0 mg/kg/injection, schedule: Q03HX024 (ip), vehicle: sodium bicarbonate 156 % of control | dose: 10.0 mg/kg/injection, schedule: Q03HX024 (ip), vehicle: sodium bicarbonate 182 % of control | dose: 20.0 mg/kg/injection, schedule: Q03HX024 (ip), vehicle: sodium bicarbonate 230 % of control | dose: 40.0 mg/kg/injection, schedule: Q03HX024 (ip), vehicle: sodium bicarbonate 269 % of control | dose: 80.0 mg/kg/injection, schedule: Q03HX024 (ip), vehicle: sodium bicarbonate 153 % of control

CCCCC(=O)C(=O)c1ccc(O)cc1O
inactive: [6] 116 % of control | [7] 114 % of control | [8] 110 % of control

C=C1C(=O)OC2C1C(O)C(OC(=O)/C(C)=C/C)C(C)C1C(=O)C=C(C)C21 (centres undefined)
inactive: [4] 107 % of control | [5] 114 % of control | dose: 25.0 mg/kg/injection, schedule: Q01DX005 (ip), vehicle: Klucel (hydroxypropylcellulose) (HPC) 115 % of control

CN(C)C(=O)c1cccc(COc2ccc(N)cc2Cl)c1
inactive: [15] 95 % of control | [16] 90 % of control | dose: 400.0 mg/kg/injection, schedule: Q01DX009 (ip), vehicle: saline with Tween-80 95 % of control

CC(C)(C)SSC(=S)C1CCCCC1
inactive: dose: 25.0 mg/kg/injection, schedule: Q01DX005 (ip), vehicle: saline with Tween-80 108 % of control | [11] 106 % of control and 116 % of control | [12] 108 % of control and 118 % of control | [13] 117 % of control
